Data published in publication PMC6010098, “Synthesis, antitumour and antioxidant activities of novel α,β-unsaturated ketones and related heterocyclic analogues: EGFR inhibition and molecular modelling study” (Journal of Enzyme Inhibition and Medicinal Chemistry, 2018).

Assays:
HepG2 cells = assay: MTT antitumour assay, HepG2; assay type: cell-based; details: human hepato-cellular carcinoma cell line, mean ± SD, n = 3
Experimental: (§1) The evaluation of the antitumour activity was performed using tetrazolium salt MTT (3-(4,5-dimethyl-2-thiazolyl)-2,5-diphenyl-2H-tetrazolium bromide) assay as reported[62]^,[63].
(§2) The designed compounds were evaluated for their in vitro antitumour effects via the standard 3-(4,5-dimethylthiazol-2-yl)-2,5-diphenyltetrazolium bromide (MTT) method against a panel of four human tumour cell lines; namely, hepatocellular carcinoma cell line (HepG2), breast cancer cell line (MCF-7), human cervical cancer cell line (HeLa), and prostate cancer cell line (PC-3)[62]^,[63]^,[72]. The antitumour activities of the designed compounds 4–12, along with that of the reference drugs 5-FU and afatinib are shown in Table 1.

MCF-7 cells = assay: MTT antitumour assay, MCF-7; assay type: cell-based; details: MCF7, human breast adenocarcinoma cell line, mean ± SD, n = 3
Experimental: as §1, §2

HeLa cells = assay: MTT antitumour assay, HeLa; assay type: cell-based; details: human cervical epithelioid carcinoma cell line, mean ± SD, n = 3
Experimental: as §1
as §2, with “(PC-3)[62]^,[63]^,[72].” for “(PC-3)[62]^,[63]^,[72]. The antitumour activities of the designed compounds 4–12, along with that of the reference drugs 5-FU and afatinib are shown in Table 1.”

PC-3 cells = assay: MTT antitumour assay, PC-3; assay type: cell-based; details: PC-3; MTT; human prostate cancer cell line; mean ± SD, n = 3
Experimental: as §1, §2

[1] = ABTS radical cation scavenging (antioxidant) assay; details: 20 µl of 1 mg/ml test sample (L-ascorbic acid 20 µl, 2 mM)
Experimental: The absorbance (Acontrol) of a green-blue solution (ABTS^+ radical solution) resulted from a mixture of ABTS and manganese dioxide (MnO2) and was recorded at λmax 734 nm, according to the reported procedure[64]^,[65]. The absorbance (Atest) was measured upon the addition of 20 µl of 1 mg/ml solution of the test sample in spectroscopic grade methanol/phosphate buffer (1:1 v/v) to the ABTS solution. The decrease in absorbance is expressed as % inhibition, which can be calculated from the following equation: % inhibition = Acontrol-Atest/Acontrol×100.
L-Ascorbic acid 20 µl (2 mM) solution was used as standard antioxidant (positive control). A blank sample was run using only methanol/phosphate buffer (1:1), while the negative control was run with ABTS and the methanol/phosphate buffer.
The assay is based on measuring the ability of the tested compounds to scavenge the long-life radical cation of ABTS[22]^,[43]^,[64]^,[65].

Row | IC50 (HepG2 cells) [µM] | IC50 (MCF-7 cells) [µM] | IC50 (HeLa cells) [µM] | IC50 (PC-3 cells) [µM] | melting point [°C] | SMILES | %Inhibition of the ABTS radical cation [1] [%]
1 | 18.9 ± 1.35 | 29.3 ± 1.97 | 16.2 ± 1.36 | 12.7 ± 1.13 | 145 to 146 | Cc1ccc(C2=NNC(c3ccc(OC4CCCC4)cc3)C2)cc1 (centres unmarked) [8a, 5-(4-(Cyclopentyloxy)phenyl)-3-(4-methylphenyl)-4,5-dihydro-1H-pyrazole] | 53.0
2 | 30.8 ± 2.07 | 48.1 ± 3.25 | 66.8 ± 4.07 | 69.4 ± 4.32 | > 300 | O=C(O)c1cc(C=Cc2ccc(OC3CCCC3)cc2)nc2ccc(F)cc12 [12b, 2-(4-(Cyclopentyloxy)styryl)-6-fluoroquinoline-4-carboxylicacid] | 50.0
3 | 62.3 ± 4.1 | 58.4 ± 4.5 | 46.2 ± 3.3 | 50.1 ± 3.55 | 120 to 122 | Cc1ccc(C2=NOC(c3ccc(OC4CCCC4)cc3)C2)cc1 (centres unmarked) [compound 9, 5-(4-(cyclopentyloxy)phenyl)-3-(4-methylphenyl)-4,5-dihydroisoxazole] | 60.0
4 | 92.9 ± 5.82 | 97.3 ± 5.51 | 62.4 ± 3.8 | 87.7 ± 5.41 | 272 to 273 | Cc1ccc(-c2cc(-c3ccc(OC4CCCC4)cc3)c(C#N)c(N)n2)cc1 [compound 11, 2-amino-4-(4-(cyclopentyloxy)phenyl)-6-(4-methylphenyl)nicotinonitrile] | –
